Data taken from ChEMBL document CHEMBL3639068, “Small molecule inhibitors of Plasmodium falciparum dihydroorotate dehydrogenase” (2014).
pIC50: −log10 of the molar value.

Key:
[1] = biological target: Dihydroorotate dehydrogenase (quinone), mitochondrial (Homo sapiens, UniProt Q02127); experiment: (§1) Enzymatic Assays: Type 2 DHODH activity was monitored with either the direct assay measuring the formation of orotate or via a chromogen reduction assay using DCIP. Although the extinction coefficient and absorption wavelength are preferable for the chromogen reduction assay, the […] electron acceptor DCIP can be utilized by DHODH as the final electron acceptor in lieu of CoQn when the endogenous substrate is at a low concentration. As such, the direct assay was used to measure the binding affinity of pfDHODH to CoQD and L-DHO. The enzymatic reaction was performed by varying the L-DHO concentration (1-400 μM) or CoQD concentration (1-200 μM) while keeping the other substrate constant and in excess. Inhibition of DHODH by small molecules was evaluated using the chromogen based assay with a final substrate concentration of 200 μM L-DHO, 18 μM CoQD, and 100 μM DCIP, unless otherwise noted.
Sequence of Dihydroorotate dehydrogenase (quinone), mitochondrial (Q02127 whole entry): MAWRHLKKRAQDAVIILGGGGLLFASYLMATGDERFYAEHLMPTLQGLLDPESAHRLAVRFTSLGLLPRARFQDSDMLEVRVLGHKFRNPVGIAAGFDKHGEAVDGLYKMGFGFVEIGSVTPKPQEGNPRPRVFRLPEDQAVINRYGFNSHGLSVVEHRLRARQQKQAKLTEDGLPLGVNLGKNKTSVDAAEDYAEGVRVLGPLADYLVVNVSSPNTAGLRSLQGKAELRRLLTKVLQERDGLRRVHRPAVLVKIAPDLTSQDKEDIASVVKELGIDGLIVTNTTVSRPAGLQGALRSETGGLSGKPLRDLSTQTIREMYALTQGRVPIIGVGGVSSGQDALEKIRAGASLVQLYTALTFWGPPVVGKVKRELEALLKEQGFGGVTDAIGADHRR

[2] = biological target: T1, Dihydroorotate dehydrogenase (fumarate) (Saccharomyces cerevisiae S288c, UniProt P28272); experiment: as §1
T1 sequence (P28272 whole entry): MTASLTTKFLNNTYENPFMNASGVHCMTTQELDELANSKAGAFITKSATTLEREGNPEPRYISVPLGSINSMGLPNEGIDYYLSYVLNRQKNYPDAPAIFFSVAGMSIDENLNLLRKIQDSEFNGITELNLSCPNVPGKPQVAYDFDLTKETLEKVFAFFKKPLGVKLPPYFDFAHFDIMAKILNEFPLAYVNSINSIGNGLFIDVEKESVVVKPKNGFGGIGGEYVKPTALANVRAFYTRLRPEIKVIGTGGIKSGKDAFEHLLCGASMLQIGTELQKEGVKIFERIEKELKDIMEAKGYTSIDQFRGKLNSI

[3] = biological target: T2, Dihydroorotate dehydrogenase, mitochondrial, putative (Plasmodium vivax (strain Salvador I), UniProt A5K1N1); experiment: as §1
T2 sequence (A5K1N1 whole entry): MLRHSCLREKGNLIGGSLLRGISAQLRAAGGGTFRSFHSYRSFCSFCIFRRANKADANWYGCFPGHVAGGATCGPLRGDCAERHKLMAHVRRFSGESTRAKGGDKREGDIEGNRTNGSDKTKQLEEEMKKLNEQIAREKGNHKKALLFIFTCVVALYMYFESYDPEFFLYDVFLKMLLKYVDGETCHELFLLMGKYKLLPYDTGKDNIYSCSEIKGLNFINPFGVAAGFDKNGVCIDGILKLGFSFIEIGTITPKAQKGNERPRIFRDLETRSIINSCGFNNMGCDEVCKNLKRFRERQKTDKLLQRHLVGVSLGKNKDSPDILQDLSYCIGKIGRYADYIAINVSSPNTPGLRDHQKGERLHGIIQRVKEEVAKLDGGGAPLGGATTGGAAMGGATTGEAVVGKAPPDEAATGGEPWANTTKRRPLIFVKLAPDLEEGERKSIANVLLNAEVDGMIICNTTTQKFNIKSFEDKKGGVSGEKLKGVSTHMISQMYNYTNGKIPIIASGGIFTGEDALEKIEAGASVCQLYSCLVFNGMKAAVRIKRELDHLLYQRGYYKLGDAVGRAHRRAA

| Structure (SMILES) | pIC50 [1] | pIC50 [2] | pIC50 [3] |
| --- | --- | --- | --- |
| CCCNC(=O)c1ccc(N2CCN(C)CC2)s1 | < 4.52 | – | – |
| Fc1cc(I)ccc1Nc1ccnc2cc(Cl)ccc12 | < 4.52 | < 5.00 | < 5.00 |
| Cc1ccccc1/C=C/c1cc(O)c2ccccc2n1 | – | – | 5.25 |
| CCCCCC1CCCc2c1nc1ccccc1c2O (configuration not stated) | – | < 5.00 | – |
| CCOC(=O)c1[nH]c(C)c(Cc2ccc(OCC)cc2)c1C | – | < 5.00 | – |
